Measurements: the NIST ThermoML archive (doi:10.1021/je050376y)
± gives the expanded uncertainty stated by the source.

Experiment: xn = mol fraction of the nth substance listed
Settings: 101 kPa, Liquid

Cc1ccc(O)cc1 [4-methylphenol] + OCCO
Settings | mass density [kg/m3] | viscosity [mPa·s]
308.15 K, x1 = 0.1001 | 1088.89 ± 0.43 | 12.15 ± 0.22
308.15 K, x1 = 0.1999 | 1077.45 ± 0.43 | 12.43 ± 0.23
308.15 K, x1 = 0.2997 | 1067.32 ± 0.42 | 12.43 ± 0.23
308.15 K, x1 = 0.4001 | 1058.44 ± 0.42 | 12.09 ± 0.22
308.15 K, x1 = 0.4998 | 1050.66 ± 0.43 | 11.54 ± 0.21
308.15 K, x1 = 0.6002 | 1043.69 ± 0.43 | 10.83 ± 0.2
308.15 K, x1 = 0.7 | 1037.34 ± 0.43 | 10.01 ± 0.19
308.15 K, x1 = 0.8 | 1031.62 ± 0.44 | 9.31 ± 0.18
308.15 K, x1 = 0.8994 | 1026.55 ± 0.44 | 8.726 ± 0.17
308.15 K, x1 = 1 | 1021.98 ± 0.45 | 8.444 ± 0.17
313.15 K, x1 = 0.1001 | 1085.2 ± 0.43 | 9.956 ± 0.19
313.15 K, x1 = 0.1999 | 1073.68 ± 0.42 | 10.18 ± 0.19
313.15 K, x1 = 0.2997 | 1063.52 ± 0.42 | 10.13 ± 0.19
313.15 K, x1 = 0.4001 | 1054.58 ± 0.42 | 9.821 ± 0.19
313.15 K, x1 = 0.4998 | 1046.78 ± 0.42 | 9.353 ± 0.18
313.15 K, x1 = 0.6002 | 1039.82 ± 0.43 | 8.735 ± 0.17
313.15 K, x1 = 0.7 | 1033.45 ± 0.43 | 8.103 ± 0.16
313.15 K, x1 = 0.8 | 1027.72 ± 0.43 | 7.526 ± 0.15
313.15 K, x1 = 0.8994 | 1022.63 ± 0.44 | 7.022 ± 0.14
313.15 K, x1 = 1 | 1018.05 ± 0.45 | 6.745 ± 0.14
318.15 K, x1 = 0.1001 | 1081.49 ± 0.42 | 8.319 ± 0.16
318.15 K, x1 = 0.1999 | 1069.89 ± 0.42 | 8.436 ± 0.16
318.15 K, x1 = 0.2997 | 1059.67 ± 0.42 | 8.358 ± 0.16
318.15 K, x1 = 0.4001 | 1050.7 ± 0.42 | 8.059 ± 0.16
318.15 K, x1 = 0.4998 | 1042.88 ± 0.42 | 7.662 ± 0.15
318.15 K, x1 = 0.6002 | 1035.9 ± 0.42 | 7.175 ± 0.14
318.15 K, x1 = 0.7 | 1029.55 ± 0.43 | 6.646 ± 0.14
318.15 K, x1 = 0.8 | 1023.79 ± 0.43 | 6.177 ± 0.13
318.15 K, x1 = 0.8994 | 1018.7 ± 0.44 | 5.739 ± 0.12
318.15 K, x1 = 1 | 1014.09 ± 0.44 | 5.471 ± 0.12
323.15 K, x1 = 0.1001 | 1077.77 ± 0.42 | 7.031 ± 0.14
323.15 K, x1 = 0.1999 | 1066.09 ± 0.41 | 7.069 ± 0.14
323.15 K, x1 = 0.2997 | 1055.81 ± 0.41 | 6.976 ± 0.14
323.15 K, x1 = 0.4001 | 1046.81 ± 0.41 | 6.721 ± 0.14
323.15 K, x1 = 0.4998 | 1038.98 ± 0.42 | 6.378 ± 0.13
323.15 K, x1 = 0.6002 | 1031.99 ± 0.42 | 5.971 ± 0.12
323.15 K, x1 = 0.7 | 1025.61 ± 0.42 | 5.523 ± 0.12
323.15 K, x1 = 0.8 | 1019.85 ± 0.43 | 5.136 ± 0.11
323.15 K, x1 = 0.8994 | 1014.75 ± 0.43 | 4.788 ± 0.11
323.15 K, x1 = 1 | 1010.12 ± 0.44 | 4.532 ± 0.1
333.15 K, x1 = 0.1001 | 1070.28 ± 0.41 | 5.121 ± 0.11
333.15 K, x1 = 0.1999 | 1058.44 ± 0.41 | 5.137 ± 0.11
333.15 K, x1 = 0.2997 | 1048.06 ± 0.41 | 5.029 ± 0.11
333.15 K, x1 = 0.4001 | 1038.98 ± 0.41 | 4.824 ± 0.11
333.15 K, x1 = 0.4998 | 1031.11 ± 0.41 | 4.607 ± 0.1
333.15 K, x1 = 0.6002 | 1024.09 ± 0.41 | 4.298 ± 0.095
333.15 K, x1 = 0.7 | 1017.71 ± 0.42 | 3.988 ± 0.089
333.15 K, x1 = 0.8 | 1011.92 ± 0.42 | 3.711 ± 0.083
333.15 K, x1 = 0.8994 | 1006.8 ± 0.43 | 3.461 ± 0.078
333.15 K, x1 = 1 | 1002.09 ± 0.43 | 3.245 ± 0.073
343.15 K, x1 = 0.1001 | 1060.64 ± 5 | 3.886 ± 0.086
343.15 K, x1 = 0.1999 | 1048.68 ± 5 | 3.849 ± 0.086
343.15 K, x1 = 0.2997 | 1038.24 ± 5 | 3.752 ± 0.084
343.15 K, x1 = 0.4001 | 1029.09 ± 5 | 3.602 ± 0.081
343.15 K, x1 = 0.4998 | 1021.2 ± 5 | 3.424 ± 0.077
343.15 K, x1 = 0.6002 | 1014.17 ± 5 | 3.201 ± 0.072
343.15 K, x1 = 0.7 | 1007.79 ± 5 | 2.995 ± 0.068
343.15 K, x1 = 0.8 | 1001.99 ± 5 | 2.786 ± 0.063
343.15 K, x1 = 0.8994 | 996.84 ± 5 | 2.588 ± 0.059
343.15 K, x1 = 1 | 992.07 ± 5 | 2.431 ± 0.056
353.15 K, x1 = 0.1001 | 1055.58 ± 0.4 | 2.934 ± 0.066
353.15 K, x1 = 0.1999 | 1043.36 ± 0.39 | 2.99 ± 0.068
353.15 K, x1 = 0.2997 | 1032.81 ± 0.39 | 2.915 ± 0.066
353.15 K, x1 = 0.4001 | 1023.59 ± 0.39 | 2.776 ± 0.063
353.15 K, x1 = 0.4998 | 1015.62 ± 0.4 | 2.648 ± 0.06
353.15 K, x1 = 0.6002 | 1008.55 ± 0.4 | 2.488 ± 0.057
353.15 K, x1 = 0.7 | 1002.15 ± 0.4 | 2.326 ± 0.054
353.15 K, x1 = 0.8 | 996.33 ± 0.41 | 2.173 ± 0.05
353.15 K, x1 = 0.8994 | 991.1 ± 0.42 | 2.022 ± 0.047
353.15 K, x1 = 1 | 986.24 ± 0.43 | 1.891 ± 0.044
